What was measured:
Format in all cases: cell-based, human
HOK-16B cells [1] = assay: Cell adhesion assay on coated plates (crystal violet absorbance at 570 nm / cell counting); settings: HOK-16B cells, 10 μg/well truncated or Ala-substituted peptide coating, 1 h
Experimental: The cell adhesion assay was performed according to a method reported by Okazaki et al. (J. Biol. Chem., 277:37070, 2002). In detail, 24-well culture plates (Nunc, Roskilde, Denmark) were coated with various amounts of rLG proteins at 4° C. overnight. The peptides were also coated on plates by drying overnight. The substrate-coated on the plates were blocked by adding 1% heat-inactivated bovine serum albumin (BSA) in PBS for 1 h at 37° C. and washed twice with PBS. The cells in the Experimental Example 1, detached by 0.05% tyrpsin and 0.53 mM EDTA in PBS and resuspended in culture media, were added (1×10^5 cells/500 μl) to each plate and incubated for 1 h at 37° C. After incubation, unattached cells were removed by rinsing twice with PBS. The attached cells were fixed with 10% formalin in PBS for 15 min, rinsed twice with PBS, and stained with 0.5% crystal violet for 1 h. The plates were gently rinsed with DDW three times and lysed with 2% SDS for 5 min. Absorbance was measured at 570 nm in a Bio-Rad Model 550 microplate reader (BioRad).
The cell adhesion and spreading activities on peptide-coated plates were examined using HOK-16B cells by the same method as Experimental Example 2. 24-well plates were coated with 10, 20, 30, 40 and 50 μg/well peptides P1 to P5, respectively. HOK-16B cells were added to peptide-coated plates and cultured for 1 h in serum-free medium for 1 hr. After the unbound cells were washed off, adherent cells were fixed and stained with crystal violet, and then the stained cells were analyzed. Absorbance was measured at 570 nm in a microplate reader. BSA and the rLG3 were used as negative control and positive control, respectively.
It was observed that peptide P4 promotes strong cell adhesion and spreading activities and binds to integrin α3β1 in the Example 4. Therefore, to determine the biologically active core sequences in peptide P4, five synthetic peptides (P4 D-I to P4 D-V), which are C-terminal truncated peptides from the peptide P4, and six synthetic peptides (P4 D-N1 to P4 D-N6), which are N-terminal truncated peptides from the peptide P4 were prepared (FIG. 6A) and examined for HOK-16B cell adhesion and spreading activities on peptide-coated plates by the present inventors. 24-well plates were coated with 10 μg/well C-terminal truncated peptides or N-terminal truncated peptides, and HOK-16B cells were added to the plates, and then cultured in serum-free medium for 1 hr. After the unbound cells were washed off, the adherent cells were fixed to stain with crystal violet, and the stained cells were analyzed. Absorbance was measured at 570 nm in a microplate reader. Peptide P4 and BSA were used as the positive and negative controls, respectively.
24-well plates were coated with 10 μg/well peptides, and HOK-16B cells were added to the plates, and then cultured in serum-free medium for 1 hr. After the unbound cells were washed off, the adherent cells were fixed to stain with crystal violet, and the stained cells were analyzed. Peptide P4 and BSA were used as the positive and negative controls, respectively. The results were expressed as mean ±SD of the four independent experiments.

HOK-16B cells [2] = assay: Cell spreading activity assay on coated plates; settings: HOK-16B cells, 10 μg/well truncated or Ala-substituted peptide coating, 1 h
Experimental: To identify spreading cells, attached cells were fixed with 10% formalin in PBS for 15 min, rinsed twice with PBS, and stained with 0.005% crystal violet for 1 h. The plates were then gently rinsed with DDW. To ensure a representative count, each plate was divided into quarters, two fields per quarter were photographed using an Olympus BX51 microscope at 100× magnification. Cells that had adopted a flattened, polygonal shape, with filopodia-and lamellipodia-like extensions were considered to be spreading cells. In contrast, cells that resisted being washed and remained tethered to the plate surface were considered to be non-spreading cells.
To examine the adhesion activity of peptide P4 in detail, the inventors examined whether the adherent cells were tethered to the substratum or spread over the substratum. The BSA and rLG3 were used as the negative control and positive control, respectively, the percentage of cells displaying a spreading morphology was quantified by dividing the number of spreading cells by the total number of bound cells.

FAK = FAK phosphorylation assay (immunoblot, p-FAK/t-FAK); settings: for FAK phosphorylation level at Tyr-397: peptides 50 μg/60-mm dish
Experimental: The FAK phosphorylation assays were performed according to a method of Shang et al. (J. Biol. Chem., 276:33045, 2001). In detail, the HOK-16B cells were trypsinized, washed, and kept in suspension in serum-free KGM with 0.1% BSA for 1 h at 37° C. The 60-mm culture dishes were coated with laminin (5 μg/ml) or rLG3 protein (25 μg/ml) at 4° C. overnight. Peptides (50 μg/60-mm culture dish) were also coated on dishes by drying overnight. For the adherent FAK assay, 1×10^6 cells were plated onto uncoated, laminin-coated, rLG3 protein-coated, or various peptide-coated dishes and allowed to attach for 15, 30, or 60 min at 37° C. in an atmosphere of 5% CO2. At the end of the incubation, cells were washed with ice-cold PBS and lysed in RIPA buffer (50 mM Tris [pH 7.4], 150 mM NaCl, 1% Nonidet P-40, 0.5% Na-deoxycholate, 1 mM EDTA, 0.1% SDS, 2 mM Na3VO4, 1 mM glycerol phosphate, 1 mM PMSF, and protease inhibitor cocktail). Lysates were clarified by centrifugation at 12,000×g for 10 min at 4° C. to isolate cytosolic extracts.
The cytosolic extracts were denatured using SDS sample buffer [50 mM Tris-HCl (pH 6.8), 2% SDS, 10% glycerol, 0.1% bromophenol blue, 100 mM β-mercaptoethanol] and separated on an 8% SDS-polyacrylamide gel. Electrophoretic transfer of SDS-PAGE gel separated with protein to a nitrocellulose membrane was followed by immnoblotting with polyclonal anti-FAK antibodies to determine the total FAK level or immnoblotting with polyclonal anti-FAK [pY^397], [pY^407], [pY^576], [pY^577] or [pY^861] antibodies to determine the extent of tyrosine phosphorylation. The relative fold induction of FAK phosphorylation, defined as an increase in FAK phosphorylation of a sample relative to its corresponding background level (i.e., cells plated on plastic) was determined as follows: First, the densitomerty intensity of the phosphorylated FAK (p-FAK) and the total FAK (t-FAK) signals from the Western blots were measured with a LAS-1000plus (Fuji photo film, Japan). The ratio of p-FAK to t-FAK (p-FAK/t-FAK) for each sample was then calculated to correct for differences in protein loading. This ratio was normalized to the p-FAK/t-FAK ratio of the negative controls to obtain the relative fold induction of FAK phosphorylation.
HOK-16B cells isolated by trypsinization were suspended for 1 hr, and kept in suspension (Sus), or replated on 60-mm culture dishes coated with or without laminin (5 μg/ml). The cells were kept for 15, 30, or 60 min for being attached on plates, then cell lysates were analyzed by immunoblot analysis with anti-FAK p-Y397 antibody (Biosource, Camariollo, Calif.). […] This effect was observed within 15 min and peaked at 15 min after exposure to the laminin-coated plate (FIG. 8A).
Therefore, the extent of FAK phosphorylation at Tyr-397,-407,-576, -577, and -861 was investigated in HOK-16B cells cultured on plates coated with laminin (5 μg/ml), rLG3 (25 μg/ml), or peptides P1-P5 (50 μg/60-mm dish) for 15 min. The lysates were immnoblotted with polyclonal anti-FAK, p-Y397, p-Y407, p-Y576, p-Y577 or p-Y861 antibodies (Biosoucce, Camariollo, Calif.), and the total FAK level was detected using anti-FAK antibodies (Upstate Biotechnology, Lake Placid, N.Y. The ratio of p-FAK to t-FAK (p-FAK/t-FAK) for each sample was then calculated to correct for differences in protein loading. This ratio was normalized to the p-FAK/t-FAK ratio of the negative controls (cells on plates) to obtain the relative fold induction of FAK phosphorylation. As a result, the extent of FAK phosphorylation at Tyr-397 cultured on the laminin-coated or rLG3 protein-coated plates increased 16.2- and 8.2-fold compared with the untreated control (FIG. 8B).

[3] = HOK-16B cells on coated dishes, laminin 5 μg/ml

Substance | cell adhesion activity compared to the peptide P4 control (HOK-16B cells [1]) | cell spreading activity compared to the peptide P4 control (HOK-16B cells [2]) | FAK phosphorylation level at Tyr-397 (FAK; [3]) | changes of the FAK phosphorylation levels at Tyr-407, -576 and -861 (FAK; HOK-16B cells on coated dishes, 15 min) | increase of FAK phosphorylation at Tyr-397 compared with the untreated control (FAK; HOK-16B cells, 15 min, laminin 5 μg/ml or rLG3 25 μg/ml coating, p-FAK/t-FAK normalized) [fold] | time of peak FAK phosphorylation at Tyr-397 after exposure to coated plate (FAK; laminin 5 μg/ml, 15, 30 or 60 min tested) [min]
P4-S2: peptide P4 in which Ala substituted for Arg (PPFLMLLKGSTA) | significantly inhibited | significantly inhibited | significantly decreased | – | – | –
P4-S3: peptide P4 in which Ala substituted for both Lys and Arg (PPFLMLLAGSTA) | significantly inhibited | significantly inhibited | significantly decreased | – | – | –
laminin [reference compound] | – | – | notably higher | not observed | 16.2 | 15
